# Measurements published in publication PMC12457078, “Inhibition of soluble epoxide hydrolase in endotoxin induced pig lung injury” (Frontiers in Pharmacology, 2025).
# Where “and” joins values, the source holds several entries; their conditions need not be identical. Equal entries are not always repeated. Where two headings read alike, the source gives them in different places.
# Test: AEPU blood concentrations in LPS-treated pigs
# Type: in vivo, pig
# Settings: for AEPU conc, In 10uL blood / AEPU conc, In analyte: listed as AEPU
# Procedure: One animal served as a pharmacokinetic pilot, with arterial and venous catheters placed in a cut-down in the neck. The remaining 21 animals were used for the randomized study (Figure 1). After intubation and start of mechanical ventilation, a second auricular vein cannula was placed and infusion of either AEPU or placebo according to randomization was started. After 2 h of infusion of AEPU or placebo, an infusion of LPS was started. A bolus of 0.1 mg/kg was administered during 30 min after which the infusion rate was adjusted to 0.01 mg/kg/h. During the time between start of AEPU or placebo and LPS infusion, neck dissection was performed, exposing the v jugularis externa and carotid artery. A pulmonary artery introducer and an arterial cannula were placed in vein and artery respectively, and a pulmonary artery catheter introduced through the introducer and the tip placed in the correct position in the pulmonary artery placement guided by continuous invasive pressure monitoring or, when difficult, assisted by fluoroscopy. All surgical procedures were performed under sterile conditions.
# AEPU was synthesized according to Kim et al. ([Kim et al., 2007]), delivered in 60 mg vials and dissolved in 30 mL pure ethanol as a co-solvent, of which either 20 mL was added to 980 mL of sodium chloride 9 mg/mL or 8 mL–392 mL sodium chloride, creating a solution of 0.04 mg/mL AEPU and 2% ethanol. The placebo infusion was prepared by adding either 20 mL of pure ethanol to 980 mL of sodium chloride 9 mg/mL or 8 mL of pure ethanol to 392 mL sodium chloride, creating a 2% ethanol solution. Each animal received an infusion of either 0.1 mg/kg/h AEPU or the corresponding volume of placebo solution.
# All animals were monitored with pulse oximetry, heart rate, ECG, systemic arterial blood pressure (ABP), pulmonary arterial pressure (PAP), central venous pressure (CVP) temperature, tidal volumes, respiratory rate and end tidal carbon dioxide. At baseline, and at 3 h, 6 h and at the end of the experiment, pulmonary capillary wedge pressure (PCWP) was measured together with arterial and venous blood gas analyses, as well as cardiac output calculations. Routine chemistry, including creatinine, bilirubin, glucose, electrolytes were collected at baseline and at the end of the experiment (Vetscan VS2®, Abaxis, Griesheim, Germany). Blood samples for measurement of AEPU plasma concentrations, as well as oxylipins (i.e., EpETrEs and their DiHETrE corresponding diols as well as related compounds with other polyunsaturated fatty acid precursors), were collected at baseline, 6 h and at the end of the experiment. Oxylipin analysis was performed according to a previously published protocol ([Gouveia-Figueira and Nording, 2015]).
smiles,measurement,setting,value
CCOCCOCCOCCCCCNC(=O)NC12CC3CC(CC(C3)C1)C2 [Compound 950],950 in blood spots,"6 h, individual pigs",61 nM and 53 nM and 118 nM and 49 nM and 77 nM and 123 nM and 162 nM and 99 nM and 66 nM
same,950 in blood spots,"9 h, individual pigs",163 nM and 42 nM and 48 nM and 79 nM and 172 nM and 149 nM
same,concentration at 9 h,"LPS start, average of pigs, read-out: 950 in blood spots, Average",62 nM
same,950 in blood spots,"LPS start, individual pigs",51 nM and 47 nM and 84 nM and 48 nM and 63 nM and 96 nM and 53 nM and 65 nM and 50 nM
same,concentration at 6 h,"pig, whole blood (blood spots), intravenous, 0.1 mg/kg/h, 6 h, average of pigs, read-out: 950 in blood spots, Average",90 nM
same,concentration at 9 h,"pig, whole blood (blood spots), intravenous, 0.1 mg/kg/h, 9 h, average of pigs, read-out: 950 in blood spots, Average",109 nM
same,"AEPU conc, In 10uL blood","sample _6, individual pigs",64.4 ng/mL and 39.4 ng/mL and 26.3 ng/mL and 24.4 ng/mL and 20.9 ng/mL and 46.8 ng/mL and 19.5 ng/mL and 30.4 ng/mL and 48.8 ng/mL
same,"AEPU conc, In analyte","sample _6, individual pigs",12.9 ng/mL and 7.9 ng/mL and 5.3 ng/mL and 4.9 ng/mL and 4.2 ng/mL and 9.4 ng/mL and 3.9 ng/mL and 6.1 ng/mL and 9.8 ng/mL
same,"AEPU conc, In 10uL blood","sample _12, individual pigs",68.1 ng/mL and 58.9 ng/mL and 0.0 ng/mL and 64.5 ng/mL and 16.7 ng/mL and 19.0 ng/mL and 31.2 ng/mL
same,"AEPU conc, In analyte","sample _12, individual pigs",13.6 ng/mL and 11.8 ng/mL and 12.9 ng/mL and 3.3 ng/mL and 3.8 ng/mL and 6.2 ng/mL
same,"AEPU conc, In 10uL blood","sample _BL, individual pigs",21.0 ng/mL and 25.7 ng/mL and 19.7 ng/mL and 20.3 ng/mL and 18.6 ng/mL and 33.4 ng/mL and 19.2 ng/mL and 25.1 ng/mL and 38.0 ng/mL
same,"AEPU conc, In analyte","sample _BL, individual pigs",4.2 ng/mL and 5.1 ng/mL and 3.9 ng/mL and 4.1 ng/mL and 3.7 ng/mL and 6.7 ng/mL and 3.8 ng/mL and 5.0 ng/mL and 7.6 ng/mL
